Tests used:
LEE011/Ribociclib = compound: CN(C)C(=O)c1cc2cnc(Nc3ccc(N4CCNCC4)cn3)nc2n1C1CCCC1 [LEE011/Ribociclib]; assay: increase in dead-cell fraction, 72 h; higher = more death;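 note: breast cancer cell lines in 384-well plates, stained with Hoechst plus LIVE/DEAD far red dye and imaged, cells above an LDR intensity threshold counted dead, Hoechst-negative corpses included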
THZ531 = compound: CN(C)C/C=C/C(=O)Nc1ccc(C(=O)N2CCC[C@@H](Nc3ncc(Cl)c(-c4c[nH]c5ccccc45)n3)C2)cc1 [THZ531]; assay: as above
THZ1 = compound: CN(C)C/C=C/C(=O)Nc1ccc(C(=O)Nc2cccc(Nc3ncc(Cl)c(-c4c[nH]c5ccccc45)n3)c2)cc1 [THZ1]; assay: as above
Flavopiridol [1] = compound: T1, CN1CC[C@H](c2c(O)cc(O)c3c(=O)cc(-c4ccccc4Cl)oc23)[C@H](O)C1 [Flavopiridol]; assay: as above
Neratinib/HKI272 = compound: CCOc1cc2ncc(C#N)c(Nc3ccc(OCc4ccccn4)c(Cl)c3)c2cc1NC(=O)/C=C/CN(C)C [Neratinib/HKI272]; assay: GR value, 72 h; higher = faster growth (1 = untreated, <0 = killing);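 note: breast cancer and non-malignant breast epithelial lines, nine half-log doses, viable cells counted by Hoechst and LIVE/DEAD dye imaging versus time-zero plates and DMSO controls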
Flavopiridol [2] = compound: T1, Flavopiridol; assay: as above

Cell Line: CAL851
- increase in dead-cell fraction (LEE011/Ribociclib; 0.001 µM): -0.003
- increase in dead-cell fraction (LEE011/Ribociclib; 0.003162 µM): 0.001
- increase in dead-cell fraction (LEE011/Ribociclib; 0.01 µM): 0.0024
- increase in dead-cell fraction (LEE011/Ribociclib; 0.03162 µM): 0
- increase in dead-cell fraction (LEE011/Ribociclib; 0.1 µM): -0.0008
- increase in dead-cell fraction (LEE011/Ribociclib; 0.3162 µM): -0.0059
- increase in dead-cell fraction (LEE011/Ribociclib; 1 µM): 0.0038
- increase in dead-cell fraction (LEE011/Ribociclib; 3.162 µM): 0.0003
- increase in dead-cell fraction (LEE011/Ribociclib; 10 µM): -0.0071
- increase in dead-cell fraction (THZ531; 0.0001 µM): 0.0002
- increase in dead-cell fraction (THZ531; 0.0003162 µM): 0.0044
- increase in dead-cell fraction (THZ531; 0.001 µM): -0.0008
- increase in dead-cell fraction (THZ531; 0.003162 µM): 0.0011
- increase in dead-cell fraction (THZ531; 0.01 µM): 0.0061
- increase in dead-cell fraction (THZ531; 0.03162 µM): 0.0125
- increase in dead-cell fraction (THZ531; 0.1 µM): 0.0297
- increase in dead-cell fraction (THZ531; 0.3162 µM): 0.048
- increase in dead-cell fraction (THZ531; 1 µM): 0.0747
- increase in dead-cell fraction (THZ1; 0.0001 µM): -0.0023
- increase in dead-cell fraction (THZ1; 0.0003162 µM): -0.0015
- increase in dead-cell fraction (THZ1; 0.001 µM): 0.0049
- increase in dead-cell fraction (THZ1; 0.003162 µM): 0.0027
- increase in dead-cell fraction (THZ1; 0.01 µM): 0.0075
- increase in dead-cell fraction (THZ1; 0.03162 µM): 0.0208
- increase in dead-cell fraction (THZ1; 0.1 µM): 0.053
- increase in dead-cell fraction (THZ1; 0.3162 µM): 0.123
- increase in dead-cell fraction (THZ1; 1 µM): 0.402
- increase in dead-cell fraction (Flavopiridol [1]; 0.0001 µM): -0.0044
- increase in dead-cell fraction (Flavopiridol [1]; 0.0003162 µM): 0.0036
- increase in dead-cell fraction (Flavopiridol [1]; 0.001 µM): 0.0039
- increase in dead-cell fraction (Flavopiridol [1]; 0.003162 µM): -0.0035
- increase in dead-cell fraction (Flavopiridol [1]; 0.01 µM): 0.0021
- increase in dead-cell fraction (Flavopiridol [1]; 0.03162 µM): 0.001
- increase in dead-cell fraction (Flavopiridol [1]; 0.1 µM): 0.0068
- increase in dead-cell fraction (Flavopiridol [1]; 0.3162 µM): 0.0514
- increase in dead-cell fraction (Flavopiridol [1]; 1 µM): 0.103
- GR value (Neratinib/HKI272; 0.0003162 µM): 1.04 GR
- GR value (Neratinib/HKI272; 0.001 µM): 0.993 GR
- GR value (Neratinib/HKI272; 0.003162 µM): 0.881 GR
- GR value (Neratinib/HKI272; 0.01 µM): 0.747 GR
- GR value (Neratinib/HKI272; 0.03162 µM): 0.435 GR
- GR value (Neratinib/HKI272; 0.1 µM): 0.226 GR
- GR value (Neratinib/HKI272; 0.3162 µM): 0.109 GR
- GR value (Neratinib/HKI272; 1 µM): -0.0501 GR
- GR value (Neratinib/HKI272; 3.162 µM): -0.322 GR
- GR value (Flavopiridol [2]; 0.0001 µM): 1.04 GR
- GR value (Flavopiridol [2]; 0.0003162 µM): 1.01 GR
- GR value (Flavopiridol [2]; 0.001 µM): 0.961 GR
- GR value (Flavopiridol [2]; 0.003162 µM): 0.874 GR
- GR value (Flavopiridol [2]; 0.01 µM): 0.718 GR
- GR value (Flavopiridol [2]; 0.03162 µM): 0.906 GR
- GR value (Flavopiridol [2]; 0.1 µM): 0.823 GR
- GR value (Flavopiridol [2]; 0.3162 µM): -0.005 GR
- GR value (Flavopiridol [2]; 1 µM): -0.159 GR
